{
  "source": "patent US7960130B2",
  "about": "“Method for activation of transient receptor potential cation channel, subfamily A, member 1 using acetaldehyde” (Korea University Industry and Academy Cooperation Foundation, priority 2008, dated 2011)",
  "key": {"TRPV1": {"molecular_target": "T1, TRPV1 (Rattus norvegicus, UniProt O35433)", "T1 construct": "expressed in transfected cells; host or cells: HEK293T (ATCC CRL-11268), pcDNA3.1", "T1 sequence (O35433 whole entry)": "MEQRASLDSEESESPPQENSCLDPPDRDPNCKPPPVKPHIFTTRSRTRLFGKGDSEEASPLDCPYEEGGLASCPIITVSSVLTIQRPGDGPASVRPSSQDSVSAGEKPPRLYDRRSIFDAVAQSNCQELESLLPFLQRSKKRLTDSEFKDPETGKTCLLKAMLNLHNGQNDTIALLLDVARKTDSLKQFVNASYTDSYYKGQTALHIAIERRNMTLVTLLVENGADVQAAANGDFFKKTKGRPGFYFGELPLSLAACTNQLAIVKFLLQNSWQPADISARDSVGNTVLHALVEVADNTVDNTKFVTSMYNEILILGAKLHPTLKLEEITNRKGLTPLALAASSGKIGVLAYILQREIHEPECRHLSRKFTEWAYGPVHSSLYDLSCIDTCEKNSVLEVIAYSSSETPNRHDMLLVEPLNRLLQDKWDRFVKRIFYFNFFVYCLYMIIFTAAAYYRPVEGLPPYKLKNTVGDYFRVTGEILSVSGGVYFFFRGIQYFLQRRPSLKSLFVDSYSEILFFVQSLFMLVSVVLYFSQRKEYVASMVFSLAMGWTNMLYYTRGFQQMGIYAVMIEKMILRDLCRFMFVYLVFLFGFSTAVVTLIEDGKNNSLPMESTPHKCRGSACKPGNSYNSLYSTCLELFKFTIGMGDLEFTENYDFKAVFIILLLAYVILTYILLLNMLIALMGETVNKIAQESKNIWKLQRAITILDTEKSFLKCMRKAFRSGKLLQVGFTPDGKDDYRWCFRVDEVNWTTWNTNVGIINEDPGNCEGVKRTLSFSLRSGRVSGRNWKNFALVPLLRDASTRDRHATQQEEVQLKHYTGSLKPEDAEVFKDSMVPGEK", "assay": "Calcium imaging of TRP transfected cell lines treated with acetaldehyde (TRPV1)", "format": "cell-based", "conditions": "1 mM acetaldehyde", "source_text": "(§1) HEK293T cell line (ATCC CRL-11268) was transiently transfected with plasmid DNA containing polynucleotide encoding hTRPA1 (SEQ. ID. NO: 1), rTRPV2 (SEQ. ID. NO: 2), rTRPV1 (SEQ. ID. NO: 3), mTRPV4 (SEQ. ID. NO: 4), mTRPA1 (SEQ. ID. NO: 5), hTRPV3 (SEQ. ID. NO: 6) or mTRPM8 (SEQ. ID. NO: 7).\n(§2) Particularly, the HEK293T cell line was transiently transfected with individual TRP channel plasmid (pcDNA3.1 containing polynucleotide encoding hTRPA1, rTRPV2, rTRPV1 or mTRPV4; pcDNA5/FRT containing polynucleotide encoding mTRPA1, hTRPV3 or mTRPM8) 3 μg per 35-mm dish and 600 ng/well of pcDNA3 (Invitrogen Corp., USA; containing green fluorescent protein (GFP) cDNA) using Fugene6 (Roche Diagnostics, USA) according to manufacturer's instruction. The transformed cells were cultured in DMEM/F12 containing 10% FBS and 1% penicillin/streptomycin in a CO2 incubator for 24 hours. The cells were replated onto poly-L-lysine-coated glass coverslips, followed by further culture for 10-24 hours.\n(§3) Particularly, the transfected cell line of Example <4-1> was loaded with Fluo-3AM (5 μM; Sigma Aldrich, USA) in the bath solution (140 mM NaCl, 5 mM KCl, 2 mM CaCl2, 1 mM MgCl2, 10 mM HEPES; adjusted to pH 7.4 with NaOH) containing 0.02% pluronic acid (Invitrogen, USA). […]"}, "TRPV3": {"molecular_target": "T2, TRPV3 (Homo sapiens, UniProt Q8NET8)", "T2 construct": "expressed in transfected cells; host or cells: HEK293T (ATCC CRL-11268), pcDNA5/FRT", "T2 sequence (Q8NET8 1-790)": "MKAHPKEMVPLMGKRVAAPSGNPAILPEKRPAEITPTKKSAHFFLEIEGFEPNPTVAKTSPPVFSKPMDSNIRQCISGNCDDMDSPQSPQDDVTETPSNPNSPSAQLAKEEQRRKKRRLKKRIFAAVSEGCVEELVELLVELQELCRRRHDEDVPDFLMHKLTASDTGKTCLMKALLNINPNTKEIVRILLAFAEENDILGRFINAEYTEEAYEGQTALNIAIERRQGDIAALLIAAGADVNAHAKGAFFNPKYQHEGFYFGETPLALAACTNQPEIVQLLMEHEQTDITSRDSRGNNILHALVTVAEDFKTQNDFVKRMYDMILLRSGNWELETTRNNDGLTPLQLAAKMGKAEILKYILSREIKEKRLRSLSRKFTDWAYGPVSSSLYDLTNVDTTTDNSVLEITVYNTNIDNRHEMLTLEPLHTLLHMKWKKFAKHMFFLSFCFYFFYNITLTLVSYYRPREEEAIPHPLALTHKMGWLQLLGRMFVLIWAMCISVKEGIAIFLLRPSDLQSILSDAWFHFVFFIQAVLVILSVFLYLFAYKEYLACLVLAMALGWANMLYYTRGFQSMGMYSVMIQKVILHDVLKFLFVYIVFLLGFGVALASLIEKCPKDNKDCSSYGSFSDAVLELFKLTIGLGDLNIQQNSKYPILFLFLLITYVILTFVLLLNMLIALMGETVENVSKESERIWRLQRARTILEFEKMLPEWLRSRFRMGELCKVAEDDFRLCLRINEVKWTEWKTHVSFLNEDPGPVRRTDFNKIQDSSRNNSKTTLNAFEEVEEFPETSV", "assay": "Calcium imaging of TRP transfected cell lines treated with acetaldehyde (TRPV3)", "format": "cell-based", "conditions": "1 mM acetaldehyde", "source_text": "as §1, §2, §3"}, "ICR mice": {"tested_on": "ICR mice", "assay": "Acute hindpaw licking/flicking behavioral analysis", "conditions": "10 min", "protocol": "This analysis was performed in accordance with protocols approved by the University Committee on Laboratory Animals. Mice were acclimated for 1 h to the test environment prior to experiments. Drugs dissolved in vehicle (PBS containing 0.5% Tween 80) were injected into mice right hindpaws intradermally."}, "trigeminal neurons": {"tested_on": "trigeminal neurons", "assay": "Fluo-3 calcium imaging of cultured mouse trigeminal neurons", "protocol": "The trigeminal neurons prepared thereby were then plated onto poly-L-lysine-coated coverslips in DMEM/F12 containing 10% FBS, 1% penicillin/streptomycin and 5 ng/Ml of 2.5S NGF (Invitrogen, USA), nerve growth factor (Invitrogen), followed by culture in a CO2 incubator for 48-72 hours."}, "mTRPA1": {"molecular_target": "T3, mTRPA1 (Mus musculus, UniProt Q8BLA8)", "T3 construct": "expressed in transfected cells; host or cells: HEK293T (ATCC CRL-11268), pcDNA5/FRT", "T3 sequence (Q8BLA8 whole entry)": "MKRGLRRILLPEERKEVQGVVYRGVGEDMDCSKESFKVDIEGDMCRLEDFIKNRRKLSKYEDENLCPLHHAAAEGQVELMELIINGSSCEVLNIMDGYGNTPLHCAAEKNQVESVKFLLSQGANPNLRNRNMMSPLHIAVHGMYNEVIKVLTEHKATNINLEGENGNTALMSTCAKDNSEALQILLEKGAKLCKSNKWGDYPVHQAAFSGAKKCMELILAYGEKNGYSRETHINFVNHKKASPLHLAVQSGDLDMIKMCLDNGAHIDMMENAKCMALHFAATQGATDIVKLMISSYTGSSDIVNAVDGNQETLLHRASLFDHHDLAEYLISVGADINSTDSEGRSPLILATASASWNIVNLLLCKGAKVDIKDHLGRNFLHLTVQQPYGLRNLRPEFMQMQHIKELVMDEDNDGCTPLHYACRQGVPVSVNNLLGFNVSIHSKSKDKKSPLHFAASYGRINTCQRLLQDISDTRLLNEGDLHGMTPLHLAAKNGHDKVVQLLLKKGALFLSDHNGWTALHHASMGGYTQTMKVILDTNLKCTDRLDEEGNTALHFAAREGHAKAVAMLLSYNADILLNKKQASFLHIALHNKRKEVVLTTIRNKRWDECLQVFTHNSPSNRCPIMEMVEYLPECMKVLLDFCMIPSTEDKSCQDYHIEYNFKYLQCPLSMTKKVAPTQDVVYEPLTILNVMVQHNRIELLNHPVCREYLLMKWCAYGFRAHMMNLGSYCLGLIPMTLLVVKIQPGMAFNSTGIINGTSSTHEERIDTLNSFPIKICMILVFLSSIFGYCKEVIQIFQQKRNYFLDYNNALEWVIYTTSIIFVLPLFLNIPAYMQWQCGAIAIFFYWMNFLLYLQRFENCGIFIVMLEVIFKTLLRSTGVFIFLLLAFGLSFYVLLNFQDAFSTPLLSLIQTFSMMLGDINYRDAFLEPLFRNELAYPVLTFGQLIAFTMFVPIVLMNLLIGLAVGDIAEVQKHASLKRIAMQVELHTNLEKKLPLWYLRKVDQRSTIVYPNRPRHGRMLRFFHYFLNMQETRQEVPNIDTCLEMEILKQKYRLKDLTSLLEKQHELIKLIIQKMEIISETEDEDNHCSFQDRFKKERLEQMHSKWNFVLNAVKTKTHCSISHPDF", "assay": "Fluo-3 calcium imaging of mTRPA1-transfected HEK293T cells", "format": "cell-based", "experimental": "as §2\nCalcium imaging was performed with a confocal microscope (LSM5 Pascal, Carl Zeiss, Germany), and time-lapse images (488 nm excitation/514 nm emission) were collected every 3 seconds using Carl Zeiss ratio tool software (Carl Zeiss, Germany).\n(§4) Stock solutions were made using water or ethanol, and were diluted with test solutions before use."}, "TRPM8": {"molecular_target": "T4, TRPM8 (Mus musculus, UniProt Q8R4D5)", "T4 construct": "expressed in transfected cells; host or cells: HEK293T (ATCC CRL-11268), pcDNA5/FRT", "T4 sequence (Q8R4D5 whole entry)": "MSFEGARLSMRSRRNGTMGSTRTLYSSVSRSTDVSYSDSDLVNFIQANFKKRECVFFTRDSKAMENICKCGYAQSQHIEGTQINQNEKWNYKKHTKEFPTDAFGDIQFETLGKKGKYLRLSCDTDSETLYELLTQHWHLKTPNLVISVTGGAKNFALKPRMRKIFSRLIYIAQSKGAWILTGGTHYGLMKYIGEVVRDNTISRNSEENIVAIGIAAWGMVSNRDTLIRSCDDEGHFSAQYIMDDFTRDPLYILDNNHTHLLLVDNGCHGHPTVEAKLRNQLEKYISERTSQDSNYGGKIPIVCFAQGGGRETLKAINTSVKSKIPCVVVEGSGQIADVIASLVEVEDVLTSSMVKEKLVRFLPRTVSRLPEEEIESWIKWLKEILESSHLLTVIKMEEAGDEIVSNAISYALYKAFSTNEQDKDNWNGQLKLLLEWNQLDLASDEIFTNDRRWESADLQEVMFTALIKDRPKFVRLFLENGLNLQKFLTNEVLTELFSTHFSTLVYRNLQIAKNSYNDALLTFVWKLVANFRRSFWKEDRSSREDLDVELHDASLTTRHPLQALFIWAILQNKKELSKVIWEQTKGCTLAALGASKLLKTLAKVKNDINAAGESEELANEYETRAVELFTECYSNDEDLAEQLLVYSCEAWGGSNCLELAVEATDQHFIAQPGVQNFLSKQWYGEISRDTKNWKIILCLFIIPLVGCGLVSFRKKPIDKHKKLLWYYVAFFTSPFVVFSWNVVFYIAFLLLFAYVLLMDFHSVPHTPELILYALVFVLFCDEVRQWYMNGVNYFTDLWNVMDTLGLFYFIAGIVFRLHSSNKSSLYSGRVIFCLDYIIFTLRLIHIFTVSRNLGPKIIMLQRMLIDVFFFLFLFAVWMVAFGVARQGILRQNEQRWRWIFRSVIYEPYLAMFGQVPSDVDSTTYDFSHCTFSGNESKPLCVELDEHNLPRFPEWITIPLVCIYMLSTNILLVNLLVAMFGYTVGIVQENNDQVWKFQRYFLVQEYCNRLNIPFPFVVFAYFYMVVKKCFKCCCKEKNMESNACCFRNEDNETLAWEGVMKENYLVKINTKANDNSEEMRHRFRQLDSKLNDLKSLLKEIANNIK", "assay": "Calcium imaging of TRP transfected cell lines treated with acetaldehyde (TRPM8)", "format": "cell-based", "conditions": "1 mM acetaldehyde", "source_text": "as §1, §2, §3"}, "TRPA1 [1]": {"tested_on": "TRPA1", "assay": "Whole-cell voltage-clamp recording of TRPA1 transfected cell line", "format": "cell-based", "conditions": "1 mM acetaldehyde, 300 μM cinnamaldehyde, voltage ramp -80 to +80 mV, n=5", "experimental": "as §2, §4\nThis experiment was repeated 5 times."}, "TRPV4": {"molecular_target": "T5, TRPV4 (Mus musculus, UniProt Q9EPK8)", "T5 construct": "expressed in transfected cells; host or cells: HEK293T (ATCC CRL-11268), pcDNA3.1", "T5 sequence (Q9EPK8 whole entry)": "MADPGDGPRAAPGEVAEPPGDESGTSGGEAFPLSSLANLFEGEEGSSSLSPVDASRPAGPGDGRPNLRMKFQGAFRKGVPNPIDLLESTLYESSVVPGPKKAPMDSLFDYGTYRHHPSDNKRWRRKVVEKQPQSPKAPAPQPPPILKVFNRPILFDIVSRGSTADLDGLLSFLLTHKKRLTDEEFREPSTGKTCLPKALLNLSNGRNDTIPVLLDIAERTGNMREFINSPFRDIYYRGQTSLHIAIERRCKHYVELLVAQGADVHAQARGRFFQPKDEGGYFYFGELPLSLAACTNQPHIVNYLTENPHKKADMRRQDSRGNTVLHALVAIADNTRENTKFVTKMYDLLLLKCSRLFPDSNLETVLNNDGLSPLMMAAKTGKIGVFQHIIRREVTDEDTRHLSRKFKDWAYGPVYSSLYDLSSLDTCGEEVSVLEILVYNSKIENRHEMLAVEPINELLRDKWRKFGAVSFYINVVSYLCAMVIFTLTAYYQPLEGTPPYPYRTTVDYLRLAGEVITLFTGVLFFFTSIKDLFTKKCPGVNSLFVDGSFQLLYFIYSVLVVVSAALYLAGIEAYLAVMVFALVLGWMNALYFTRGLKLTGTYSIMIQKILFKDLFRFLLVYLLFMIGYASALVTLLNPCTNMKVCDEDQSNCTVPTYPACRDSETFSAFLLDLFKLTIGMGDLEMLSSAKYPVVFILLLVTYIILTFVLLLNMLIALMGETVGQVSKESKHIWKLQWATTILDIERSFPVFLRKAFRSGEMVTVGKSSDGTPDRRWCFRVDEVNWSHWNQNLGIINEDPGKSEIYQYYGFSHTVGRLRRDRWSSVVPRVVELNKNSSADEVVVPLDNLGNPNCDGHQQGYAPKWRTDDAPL", "assay": "Calcium imaging of TRP transfected cell lines treated with acetaldehyde (TRPV4)", "format": "cell-based", "conditions": "1 mM acetaldehyde", "source_text": "as §1, §2, §3"}, "TRPA1 [2]": {"tested_on": "TRPA1", "assay": "Calcium imaging of TRP transfected cell lines treated with acetaldehyde (TRPA1)", "format": "cell-based", "conditions": "1 mM acetaldehyde", "source_text": "as §1, §2, §3"}},
  "data": [
    {"compound": "CC=O", "note": "[acetaldehyde]", "values": [
      {"measurement": "activation of TRPV1 by acetaldehyde", "setting": "TRPV1", "value": "only TRPA1 was activated"},
      {"measurement": "activation of TRPV3 by acetaldehyde", "setting": "TRPV3", "value": "only TRPA1 was activated"},
      {"measurement": "dose dependence of acetaldehyde-induced nociceptive behaviors", "setting": "ICR mice; 1 mM, 10 mM, 100 mM acetaldehyde intradermal", "value": "increased in a dose-dependent manner"},
      {"measurement": "acute hindpaw licking/flicking behavior elicited", "setting": "ICR mice; intradermal into hindpaw, 10 μl, 100 mM acetaldehyde or 10 mM cinnamaldehyde, n=5", "value": "elicited acute licking or flicking behavior"},
      {"measurement": "acetaldehyde response of capsaicin-cinnamaldehyde-positive neurons", "setting": "trigeminal neurons; 1 mM acetaldehyde, n=19", "value": "did response"},
      {"measurement": "acetaldehyde response of menthol-positive neurons", "setting": "trigeminal neurons; 1 mM acetaldehyde, n=36, considered to express TRPM8", "value": "did not show response"},
      {"measurement": "acetaldehyde response of capsaicin-positive/cinnamaldehyde-negative neurons", "setting": "trigeminal neurons; 1 mM acetaldehyde, n=102, considered to express TRPV1", "value": "did not show response"},
      {"measurement": "EC50", "setting": "trigeminal neurons; Mus musculus, Neuron, read-out: EC50 of acetaldehyde alone (Kd of dose-response curve) in trigeminal neurons", "value": 740, "unit": "µM"},
      {"measurement": "maximum efficacy heightened with PGE2 versus acetaldehyde alone", "setting": "trigeminal neurons; acetaldehyde + 1 μM PGE2", "value": 1.2, "unit": "fold"},
      {"measurement": "EC50", "setting": "mTRPA1", "value": 1190, "unit": "µM"},
      {"measurement": "n of dose-response curve (Hill plot) on mTRPA1", "setting": "mTRPA1; acetaldehyde 1 to 10^4 μM, Fluo-3 calcium imaging", "value": 3.1},
      {"measurement": "maximum efficacy in mTRPA1 responses compared with hTRPA1", "setting": "mTRPA1; dose-response, calcium imaging", "value": "greater maximum efficacy"},
      {"measurement": "activation of TRPM8 by acetaldehyde", "setting": "TRPM8", "value": "only TRPA1 was activated"},
      {"measurement": "whole-cell current response in TRPA1 expressing cells", "setting": "TRPA1 [1]", "value": "pronounced outwardly rectifying current occurred"},
      {"measurement": "activation of TRPV4 by acetaldehyde", "setting": "TRPV4", "value": "only TRPA1 was activated"},
      {"measurement": "activation of TRPA1 by acetaldehyde", "setting": "TRPA1 [2]", "value": "only TRPA1 was activated"}
    ]}
  ]
}
